Like-named read-outs stand apart in the source and are kept apart here.

One series has as its system GAERS rats. The experiment in a line: GAERS rat model of absence epilepsy. As to conditions: 100 mg/kg oral.
The nature of the next series: in vivo. As to conditions: rat, po.
Series [1] in a line: In vitro plasma protein binding, human. Type of series: in vitro ADME. As to conditions: human plasma, read-out: Human-free fraction.
Series [2] in a line: Single-dose toxicokinetic study in dogs. The series is classed as in vivo. As to conditions: dog, plasma, po, 800 mg/kg.
Series [3] in a line: 90-day oral toxicology in Beagle dogs. As to conditions: Beagle, dog, in vivo, po.
The next series deals with T1, Cav3.3 (Homo sapiens, UniProt Q9P0X4).
T1 construct: expressed in transfected cells; host or cells: HEK 293
T1 sequence (Q9P0X4 whole entry, species assumed): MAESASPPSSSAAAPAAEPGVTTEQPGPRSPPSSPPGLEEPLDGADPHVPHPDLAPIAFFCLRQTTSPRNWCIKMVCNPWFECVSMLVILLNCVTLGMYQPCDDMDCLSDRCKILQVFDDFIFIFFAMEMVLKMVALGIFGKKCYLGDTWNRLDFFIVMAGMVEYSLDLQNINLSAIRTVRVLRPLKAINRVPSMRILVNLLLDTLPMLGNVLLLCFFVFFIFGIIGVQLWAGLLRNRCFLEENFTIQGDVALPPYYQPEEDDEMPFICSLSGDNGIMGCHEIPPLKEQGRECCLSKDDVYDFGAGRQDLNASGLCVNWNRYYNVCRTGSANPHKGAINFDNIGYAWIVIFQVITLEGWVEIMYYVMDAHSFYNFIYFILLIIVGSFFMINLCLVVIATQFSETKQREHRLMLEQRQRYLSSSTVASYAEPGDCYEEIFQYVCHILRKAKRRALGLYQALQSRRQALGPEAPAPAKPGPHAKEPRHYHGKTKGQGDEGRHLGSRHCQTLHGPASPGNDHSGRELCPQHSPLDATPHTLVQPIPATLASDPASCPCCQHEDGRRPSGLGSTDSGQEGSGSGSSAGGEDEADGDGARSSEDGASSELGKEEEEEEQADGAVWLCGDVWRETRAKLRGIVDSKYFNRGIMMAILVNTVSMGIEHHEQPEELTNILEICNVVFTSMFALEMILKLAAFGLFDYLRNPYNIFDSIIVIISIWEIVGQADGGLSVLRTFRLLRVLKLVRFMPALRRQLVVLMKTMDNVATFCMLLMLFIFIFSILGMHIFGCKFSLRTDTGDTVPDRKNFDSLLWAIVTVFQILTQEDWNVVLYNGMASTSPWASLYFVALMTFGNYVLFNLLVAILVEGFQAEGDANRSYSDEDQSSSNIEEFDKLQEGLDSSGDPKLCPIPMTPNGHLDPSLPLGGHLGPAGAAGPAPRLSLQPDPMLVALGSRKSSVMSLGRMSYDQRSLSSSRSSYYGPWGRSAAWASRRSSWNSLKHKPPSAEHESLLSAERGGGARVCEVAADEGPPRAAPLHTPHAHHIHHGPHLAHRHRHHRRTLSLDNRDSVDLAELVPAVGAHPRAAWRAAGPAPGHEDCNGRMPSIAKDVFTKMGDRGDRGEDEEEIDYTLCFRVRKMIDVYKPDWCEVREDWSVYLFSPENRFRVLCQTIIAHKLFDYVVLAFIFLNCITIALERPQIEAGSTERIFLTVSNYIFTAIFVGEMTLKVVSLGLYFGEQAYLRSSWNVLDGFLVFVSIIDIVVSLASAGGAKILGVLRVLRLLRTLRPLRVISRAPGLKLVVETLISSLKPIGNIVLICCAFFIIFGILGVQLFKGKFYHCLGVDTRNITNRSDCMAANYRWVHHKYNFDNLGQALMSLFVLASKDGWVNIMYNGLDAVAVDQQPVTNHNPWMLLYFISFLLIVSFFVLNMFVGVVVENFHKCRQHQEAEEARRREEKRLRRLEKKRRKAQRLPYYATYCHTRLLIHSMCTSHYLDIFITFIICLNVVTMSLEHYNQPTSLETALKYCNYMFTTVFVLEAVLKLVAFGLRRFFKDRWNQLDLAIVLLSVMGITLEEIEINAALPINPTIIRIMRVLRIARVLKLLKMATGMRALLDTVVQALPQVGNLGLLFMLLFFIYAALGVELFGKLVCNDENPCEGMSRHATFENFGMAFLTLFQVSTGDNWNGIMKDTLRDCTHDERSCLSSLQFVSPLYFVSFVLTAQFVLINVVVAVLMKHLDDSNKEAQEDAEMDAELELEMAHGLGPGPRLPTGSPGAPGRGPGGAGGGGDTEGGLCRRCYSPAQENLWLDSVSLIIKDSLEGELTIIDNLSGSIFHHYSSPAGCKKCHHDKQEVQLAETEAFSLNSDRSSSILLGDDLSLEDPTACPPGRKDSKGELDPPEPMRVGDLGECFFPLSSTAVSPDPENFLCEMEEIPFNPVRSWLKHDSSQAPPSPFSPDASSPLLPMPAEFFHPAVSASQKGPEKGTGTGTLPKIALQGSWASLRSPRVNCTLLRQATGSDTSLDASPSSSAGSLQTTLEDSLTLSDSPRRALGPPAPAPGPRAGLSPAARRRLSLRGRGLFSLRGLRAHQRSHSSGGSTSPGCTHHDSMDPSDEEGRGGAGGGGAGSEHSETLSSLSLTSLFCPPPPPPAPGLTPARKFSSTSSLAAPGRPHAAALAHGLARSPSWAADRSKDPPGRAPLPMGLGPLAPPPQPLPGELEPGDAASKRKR
The series can be described thus: Cav3.3 FLIPR calcium influx assay (HEK 293 cells). The series is classed as cell-based. As to conditions: for IC50: Cav3.3 FLIPR assay; for State dependence: hyperpolarized versus depolarized FLIPR potency.

Series [4] is described as follows: T-CALM: plasma concentrations by 5-in-1 LC/MS/MS. Type of series: in vivo, human. As to conditions: for Plasma concentration, mean: trough; for concentration at 4 h: human, plasma, oral, 4 hours post-dose.
Procedure: Additionally, at Visit 4, a post-dose sample will be collected as close to 4 hours post-dose as possible, but within the window of 4-6 hours post-dose (i.e., a total of two PK samples are collected at Visit 4.)
Assay performances were satisfactory and met acceptance criteria for system performance suitability, quantitation range, calibration linearity, assay accuracy and precision, and assay recovery.
Series [5] is described as follows: Brain penetration in male rats. The series is classed as in vivo. Particulars: rat, 25 mg/kg.
The next series has as its system WAG/Rij rats. The series can be described thus: WAG/Rij rat model of absence epilepsy. Type of series: in vivo. As to conditions: 10 mg/kg oral. From the text:
Other T-type antagonists from structurally diverse series have shown similar efficacy in this model (Broicher, 2007; Blumenfeld, 2008; Broicher, 2008; Shipe, 2008; Yang, 2008; Uebele, 2009; Russo, 2010; Russo, 2011).
Data were scored with automated seizure analysis software, averaged, and normalized to enable treatment comparisons (FIG. 76)
Control animals received vehicle administrations. […] Source: Merck TTA Package Description (FIG. 79).

The conditions of series [6]: rodents; from literature; cited from earlier work.
The conditions of series [7]: rodents; from literature; cited from earlier work. This is another data set of the same source.
Another series relates to Cav3. As to conditions: from literature, cited from earlier work; for IC50: read-out: Cav3 potency.
For series [8] the following is noted: rodents; from literature; cited from earlier work. This is another data set of the same source.
Another series relates to harmaline-induced tremor. Particulars: dose levels up to 10 mg/kg; cited from earlier work.
Series [9] has as its system patients with schizophrenia. The series can be described thus: PN004: safety. Type of series: in vivo, human. Particulars: Study PN004, subjects with schizophrenia, BID Days 1 to 28; CX-8998 N = 86, Olanzapine N = 47.
Source text: The primary efficacy endpoint was the mean change from baseline in the Positive and Negative Syndrome Scale (PANSS) total score at Week 4; secondary efficacy endpoints included responder rates on the PANSS total score at Week 4 and the change from baseline in the Clinical Global Impressions—Severity of Illness Scale at Week 4. Safety was monitored by adverse events, laboratory evaluations, ECGs, Holter monitoring, vital signs, the Simpson-Angus Scale, the Barnes Akathisia Rating Scale, the Abnormal Involuntary Movement Scale, and the Columbia Suicide-Severity Rating scale (C-SSRS).
[10] abbreviates: depolarized, read-out: Depolarized FLIPR potency.
The mark [11] stands for this setting: hyperpolarized, read-out: Hyperpolarized FLIPR potency.

Turning to `CCC1(C)CC(=O)NC1=O` (stereo not shown) [Ethosuximide, ethosuximide], the “Number and frequency of seizures” value in the series with GAERS rats was “only partially suppressed”.

One may read the AUC as concentration integrated over time. Read a high AUC as high exposure. Usually Tmax stands for the time at which the peak concentration occurs. Regarding `CC(C(=O)O)c1ccc(CC(=O)N[C@H](C)c2ccc(OCC(F)(F)F)cn2)cc1` (stereo partly shown) [M03], the exposure (AUC) in the series “in vivo” (female, 5 mg/kg) amounted to 9.85 µM·h; in the series “in vivo” (female, 15 mg/kg), 19.7 µM·h; in “in vivo” (female, 100 mg/kg), 159 µM·h; in the series “in vivo” (female, 300 mg/kg) it was 169 µM·h; in the series “in vivo” (male, 5 mg/kg) it was 23.9 µM·h; in “in vivo” (male, 15 mg/kg), 34.9 µM·h. Moreover, the AUC in “in vivo” (male, 100 mg/kg) came out at 181 µM·h; in the series “in vivo” (male, 300 mg/kg), 213 µM·h; in series [3] (female, 10 mg/kg) it was 8.4 µM·h; in [3] (female, 30 mg/kg), 15.4 µM·h; in [3] (female, 100 mg/kg/day) it was 17.2 µM·h; in series [3] (male, 10 mg/kg), 10.5 µM·h. Further, the AUC was found to be 12.3 µM·h in series [3] (male, 30 mg/kg) and 79.6 µM·h in series [3] (male, 100 mg/kg/day). Further, in series [1], the fraction unbound amounted to 0.21. Also, the time of peak concentration (Tmax) in series [2] (female) is 8 h; in [2] (male) it was 24 h. Further, on Cav3.3, the “Potency and state dependence compared with CX-8998” value is “significantly less potent and state dependent”. In addition, the figures for the IC50 on Cav3.3 (setting [10]) and at Cav3.3 (setting [11]) were 948 nM and 3320 nM, respectively. Also, the State dependence on Cav3.3 is listed as 3.5 fold. The “Plasma concentration, mean” value in series [4] (Visit 2 (Day 8), 4 mg BID) was determined as 11 nM; in series [4] (Visit 3 (Day 15), 8 mg BID) it was 16 nM; in [4] (Visit 4 (Day 28), 10 mg BID) it was 20 nM. The same compound yielded a concentration at 4 h in [4] (Visit 4 (Day 28), 10 mg BID) of 22 nM. For the same compound, the Kp at 2 h in series [5] (brain and plasma, oral, read-out: Brain-to-plasma ratio) came out at 0.01; in series [5] (brain, po, read-out: Brain: Plasma Ratio), 0.01. This compound also showed a Percent of inhibition with WAG/Rij rats of 71%.

Consider `CC(CO)c1ccc(CC(=O)N[C@H](C)c2ccc(OCC(F)(F)F)cn2)cc1` (stereo partly shown) [M04], for which the AUC came to 3.19 µM·h in “in vivo” (female, 5 mg/kg); 8.04 µM·h in “in vivo” (female, 15 mg/kg); 61.9 µM·h in “in vivo” (female, 100 mg/kg); 55.3 µM·h in the series “in vivo” (female, 300 mg/kg); 1.32 µM·h in the series “in vivo” (male, 5 mg/kg); 2.47 µM·h in the series “in vivo” (male, 15 mg/kg). For the same compound, the AUC in “in vivo” (male, 100 mg/kg) came out at 15.5 µM·h; in the series “in vivo” (male, 300 mg/kg), 19.4 µM·h; in series [3] (female, 10 mg/kg), 2.19 µM·h; in series [3] (female, 30 mg/kg), 3.75 µM·h; in [3] (female, 100 mg/kg/day), 8.1 µM·h; in series [3] (male, 10 mg/kg), 3.37 µM·h. Besides, the AUC in series [3] (male, 30 mg/kg) amounted to 2.25 µM·h; in series [3] (male, 100 mg/kg/day), 33.9 µM·h. In series [1], the fraction unbound was found to be 0.13. For the same compound, the “Fold less potent than CX-8998” value on Cav3.3 is recorded as “approximately 5 fold”. The IC50 at Cav3.3 (setting [10]) is 19 nM; on Cav3.3 (setting [11]), 1810 nM. For the same compound, the State dependence at Cav3.3 was found to be 95 fold. Moreover, the “Plasma concentration, mean” value in series [4] (Visit 2 (Day 8), 4 mg BID) was 4.5 nM; in series [4] (Visit 3 (Day 15), 8 mg BID) it was 4.9 nM; in series [4] (Visit 4 (Day 28), 10 mg BID), 5.6 nM. The concentration at 4 h in series [4] (Visit 4 (Day 28), 10 mg BID) came to 6.4 nM. Further, the Percent of inhibition in the series with WAG/Rij rats amounted to 60%.

As usually defined, the t½ is how long it takes for the measured level to halve. Turning to `C[C@@H](NC(=O)Cc1ccc(C2CC2)cc1)c1ccc(OCC(F)(F)F)cn1` [TTA-A2], the Plasma-free fraction in series [6] is reported as 0.6%. Moreover, in [7], the AUClast is 30 µM·h and the t½ is 1.5 h. For the same compound, in the series on Cav3, the State dependency is recorded as ≥40 fold and the IC50 was 89 to 98 nM.

By Cmax is commonly meant the maximum level reached in the sampled fluid or tissue. Turning to `CC1(C)C[C@@H](CN2CCC(F)(CNC(=O)c3cc(Cl)cc(Cl)c3)CC2)CCO1` [TTA-P2], in series [6], the Plasma-free fraction is recorded as 5.7%. Further, the Brain/plasma ratio in series [8] was 6.0. In addition, in [7], the AUClast was 1.94 µM·h, the Cmax is 480 nM, the time to peak (Tmax) was 0.7 h and the t½ was 1.8 h. Further, in the series with harmaline-induced tremor, the Harmaline-induced tremor entry is “normalized both physiologic tremor prior to harmaline administration and harmaline-induced tremor in a dose-dependent fashion”. Moreover, in the series with Cav3, the State dependency is reported as 1 fold and the IC50 is 84 to 196 nM.

As for `Cc1cc2c(s1)Nc1ccccc1N=C2N1CCN(C)CC1` [olanzapine, reference compound], in series [9], the Anxiety is 0 (0.0), the “At least 1 adverse event” value is 23 (48.9), the Chronic pharyngitis is 0 (0.0) and the Dizziness was 1 (2.1). For the same compound, in series [9], the Headache is 3 (6.4), the Rhinopharyngitis is on record as 0 (0.0), the Schizophrenia is recorded as 1 (2.1) and the Sinus tachycardia is listed as 3 (6.4). Further, in series [9], the Somnolence was 3 (6.4).

The values above are taken from patent US11311522B1 (Cavion, Inc., priority 2018, dated 2022).
